{"source": "patent US7592003B2", "about": "“Regulation of toll-like receptors on stem cells” (Oklahoma Medical Research Foundation, priority 2005, dated 2009)", "key": {"[1]": {"system": "LKS^+ cells", "test": "Serum-free, stromal cell-free culture of sorted LKS+ cells, lineage markers by flow cytometry", "assay_type": "cell-based, mouse", "experimental": "FIGS. 2A-D—Activation of TLRs through MyD88 on LKS^+ cells leads to myeloid cell differentiation. (FIG. 2A) Left, sorted LKS^+ cells (10,000 cells/well) from C57BL/6 or MyD88^−/− mice were cultured in the presence of FL and SCF with medium alone, LPS (10 μg/ml) or Pam3CSK4 (1 μg/ml). After 72 h in culture, cells were analyzed by flow cytometry for expression of lineage markers. Percentages indicate the frequencies of Lin^+ or Lin^− cells. Right, the bar graph depicts yields, i.e., numbers of Lin^+ cell recovered per input progenitor and the data represent mean values with standard deviations from triplicate cultures (*P<0.01). The results are representative of five independent experiments. […] After 72 or 96 h in culture, cells were analyzed by flow cytometry for Mac-1 and F4/80. […] After 72 h in culture, cells were analyzed by flow cytometry for expression of lineage markers. […]\nFIG. 11A-B—TLR stimulation causes a progression of Lin^+ cells from LKS^+ cells and soluble CD14 augments the acquisition of Mac-1 and F4/80. […] After 24 or 48 h in culture, cells were analyzed by flow cytometry for expression of lineage markers and percentages of Lin^+ or Lin^− cells are indicated. […] After 24, 48, or 72 h in culture, cells were analyzed by flow cytometry for expression of lineage markers. […] After 72 h in culture, cells were analyzed by flow cytometry for expression of Mac-1 and F4/80. […]"}, "[2]": {"system": "CLP", "test": "Single cell culture of TLR ligand pre-treated CLP on OP9 stromal cells", "assay_type": "cell-based, mouse", "conditions": "24 h pre-treatment, 10 days on OP9", "experimental": "FIG. 7—Altered differentiation patterns of single lymphoid progenitors activated via TLRs. Sorted CLP were cultured in the presence of SCF, FL and IL-7 with medium alone, LPS (10 μg/ml) or Pam3CSK4 (1 μg/ml). After 24 h, cultured cells were harvested and washed three times with medium. Single cultured cells were then sorted and re-cultured on OP9 stromal cells in 96-well plates for 10 days in the presence of SCF, FL and IL-7. Positive colonies were examined by flow cytometry (representative examples shown on top row). The frequencies of wells with each of these differentiation patterns are shown along with total numbers of clones observed.\nSingle cell culture on OP9 stromal cells. Sorted CLP were cultured with X-VIVO15in the presence of SCF (20 ng/ml), FL (100 ng/ml) and IL-7 (1 ng/ml) with or without LPS (10 μg/ml), or Pam3CSK4 (1 μg/ml). After 24 h, cultured cells were harvested and washed with medium three times. A single cell sorting for the cultured cells was then conducted on a FACSAria™ and a single cell was plated on OP9 stromal cells in 96-well plate and cultured for 10 days in the presence of SCF (20 ng/ml), FL (100 ng/ml) and IL-7 (1 ng/ml). […] Positive wells (more than 30 cells) were determined by microscopic observation. Cells were harvested and then stained with mAbs to CD19, CD11c, and Mac-1 and analyzed by flow cytometry. […]"}}, "data": [{"substance": "Pam3CSK4", "values": [{"measurement": "Increase of absolute numbers of Lin+ cells", "setting": "[1]; LKS+ cells with FL and SCF, within 72 h", "result": "approximately eight-fold"}, {"measurement": "Increase of Lin+ cells with cells from MyD88-deficient mice", "setting": "[1]; MyD88-deficient LKS+ cells, 72 h", "result": "did not occur"}, {"measurement": "Numbers of pure CD19+ B cell clones", "setting": "[2]", "result": "did not alter the production of CD19^+ B cell clones"}, {"measurement": "Numbers of pure mDC colonies", "setting": "[2]", "result": "enhanced production of colonies with pure mDC"}]}]}
